Results published in ChEMBL document CHEMBL2401653, “Synthesis, structure-property relationships and pharmacokinetic evaluation of ethyl 6-aminonicotinate sulfonylureas as antagonists of the P2Y₁₂ receptor” (Eur J Med Chem, 2013).
≈ marks a conversion by molar mass, not a printed value.

Experiments:
[1] = Stability of the compound in EtOH at room temperature after 21 days by LC/MS analysis; assay type: physicochemical; details: 504 h
P2Y purinoceptor 12 [2] = target: T1, P2Y purinoceptor 12 (Homo sapiens, UniProt Q9H244)
T1 sequence (Q9H244 whole entry): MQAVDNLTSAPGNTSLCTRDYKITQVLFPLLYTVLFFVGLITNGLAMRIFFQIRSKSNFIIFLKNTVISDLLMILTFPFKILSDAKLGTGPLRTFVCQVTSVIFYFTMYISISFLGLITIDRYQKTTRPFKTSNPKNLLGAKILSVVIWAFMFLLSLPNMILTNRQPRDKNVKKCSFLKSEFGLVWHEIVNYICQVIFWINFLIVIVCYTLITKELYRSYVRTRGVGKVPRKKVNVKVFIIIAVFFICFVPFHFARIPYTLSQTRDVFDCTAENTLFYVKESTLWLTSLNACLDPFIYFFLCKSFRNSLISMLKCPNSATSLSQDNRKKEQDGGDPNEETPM
Description: Displacement of [125I]-AZ11931285 from P2Y12 receptor (unknown origin) after 1 hr by scintillation counting analysis

P2Y purinoceptor 12 [3] = target: T1, P2Y purinoceptor 12; remark: listed apart in the source
[4] = Stability of the compound in MeCN assessed as compound remaining at room temperature; assay type: physicochemical
[5] = Stability of the compound in MeCN at room temperature after 21 days by LC/MS analysis; assay type: physicochemical; details: 504 h
[6] = 1-octanol-phosphate buffer distribution coefficient, log D of the compound at pH 7.4 after 2 days by shake flask method; assay type: physicochemical
[7] = Aqueous solubility of the compound; assay type: physicochemical; details: buffer
[8] = Oral bioavailability in rat; assay type: ADME, organism-based; details: in vivo
[9] = Half life in iv dosed rat; assay type: ADME, organism-based; details: in vivo
[10] = Apparent Permeability across apical to basolateral side in human Caco2 cells at 1 to 10 uM measured at 30 to 90 mins by LC/MS analysis; assay type: ADME, cell-based; details: Caco-2
Plasma = assay: Metabolic stability in rat plasma by HRMS analysis; assay type: ADME, cell-free
Liver microsomes [11] = assay: Metabolic stability in human liver microsomes at 1 umol/L by LC/MS analysis in absence of NADPH; assay type: ADME, Microsome; details: 1 µM
[12] = Half life in po dosed rat; assay type: ADME, organism-based; details: in vivo
[13] = Fraction unbound in human plasma; assay type: ADME, cell-free
[14] = Clearance in iv dosed rat; assay type: ADME, organism-based; details: in vivo
Liver microsomes [15] = assay: Metabolic stability in rat liver microsomes at 1 umol/L by LC/MS analysis in absence of NADPH; assay type: ADME, Microsome; details: 1 µM
Liver microsomes [16] = assay: Intrinsic clearance in human liver microsomes at 1 umol/L by LC/MS analysis in presence of NADPH; assay type: ADME, Microsome; details: 1 µM
Liver microsomes [17] = assay: Intrinsic clearance in rat liver microsomes at 1 umol/L by LC/MS analysis in presence of NADPH; assay type: ADME, Microsome; details: 1 µM
physchem [18] = details: HBSS buffer, pH 6.8
Description: Kinetic solubility in HBSS buffer at pH 6.8 after 16 hrs by LC-UV/MS analysis

[19] = Stability of the compound in MeCN assessed as compound remaining at 5 degC after 4 months; assay type: physicochemical; details: read-out: Stability
physchem [20] = details: HBSS buffer, pH 7.4
Description: Kinetic solubility in HBSS buffer at pH 7.4 after 16 hrs by LC-UV/MS analysis

Row | SMILES | IC50 (P2Y purinoceptor 12 [2]) [nM] | IC50 (P2Y purinoceptor 12 [3]) [nM] | Stability [4] | logD at 48 h [6] | Papp A→B at up to 10 µM [10] [×10⁻⁶ cm/s] | Stability (Liver microsomes [11]) | Stability (Liver microsomes [15]) | Intrinsic clearance (CLint) (Liver microsomes [16]) [µL/min/mg] | Intrinsic clearance (Liver microsomes [17]) [µL/min/mg] | other results
1 | CCOC(=O)c1cnc(N2CCC(NC(=O)NS(=O)(=O)c3ccccc3)CC2)c(Cl)c1 | 4800 | 3200 | Stable | 1.5 |  |  |  |  |  | Stability [1]: Unstable; Stability [5]: Stable
2 | CCOC(=O)c1cc(C#N)c(N2CCN(C(=O)Nc3ccccc3)CC2)nc1C(F)(F)F |  |  | Stable | 5 |  |  |  |  |  | solubility [7]: < 0.1 µM
3 | CCOC(=O)c1cc(C#N)c(N2CCN(C(=O)NCCc3cccs3)CC2)nc1C(F)(F)F | 1300 | 510 | Stable | 5 |  |  |  |  |  | solubility kinetic at 16 h (physchem [18]): 15 µM (≈ 7.22 µg/mL)
4 | CCOC(=O)c1cnc(N2CCN(C(=O)Nc3ccccc3)CC2CCC(=O)O)c(Cl)c1 (racemic) | 680 | 2200 | Stable |  |  |  |  |  |  | solubility kinetic at 16 h (physchem [18]): 96 µM (≈ 44.2 µg/mL)
5 | CCOC(=O)c1cnc(N2CCN(C(=O)NS(=O)(=O)c3ccc(Cl)cc3)CC2)c(Cl)c1 | 520 | 380 | Stable | 1.3 | 1.2 |  |  | > 70 | > 104 | Stability [1]: Unstable; Stability [5]: Stable
6 | CCOC(=O)c1cc(C#N)c(N2CC(NC(=O)NS(=O)(=O)c3ccc(Cl)s3)C2)nc1C |  |  | Stable | 0.8 | 0.11 |  |  |  | > 104 | solubility [7]: 83 µM (≈ 40.2 µg/mL)

Continued, in another order:

Row | IC50 (P2Y purinoceptor 12 [2]) [nM] | IC50 (P2Y purinoceptor 12 [3]) [nM] | Stability [4] | logD at 48 h [6] | Papp A→B at up to 10 µM [10] [×10⁻⁶ cm/s] | Stability (Liver microsomes [11]) | Stability (Liver microsomes [15]) | Intrinsic clearance (CLint) (Liver microsomes [16]) [µL/min/mg] | Intrinsic clearance (Liver microsomes [17]) [µL/min/mg] | SMILES | other results
7 | 430 | 380 | Stable | 0.8 | 3.9 | Stable | Stable |  |  | CCOC(=O)c1cnc(N2CC(NC(=O)NS(=O)(=O)c3ccccc3)C2)c(Cl)c1 | bioavailability [8]: 20%; Stability [1]: Stable; half-life [9]: 0.17 h; Stability [5]: Stable; Stability (Plasma): Unstable; half-life [12]: 2.1 h; fraction unbound [13]: < 0.015; clearance [14]: 29 mL/min/kg
8 | 90 | 100 | Stable | 0.9 | 0.11 | Stable | Stable | > 70 | > 104 | CCOC(=O)c1cnc(N2CCN(C(=O)NS(=O)(=O)c3ccc(Cl)s3)CC2)c(Cl)c1 | bioavailability [8]: 15%; half-life [9]: 0.92 h; Stability (Plasma): Unstable; half-life [12]: 2.4 h; fraction unbound [13]: < 0.015; clearance [14]: 36 mL/min/kg
9 | 180 | 220 | Stable |  | 0.28 | Stable | Stable | > 70 | > 104 | CCOC(=O)c1cnc(N2CCN(C(=O)NS(=O)(=O)c3ccccc3)CC2)c(Cl)c1 | solubility kinetic at 16 h (physchem [18]): 100 µM (≈ 45.3 µg/mL)
10 | 79 | 39 | Stable | 1.1 | 0.076 | Stable | Stable |  |  | CCOC(=O)c1cc(C#N)c(N2CCN(C(=O)NS(=O)(=O)c3ccc(Cl)s3)CC2)nc1C(F)(F)F | remaining at 2922 h [19]: 10%
11 | 300 | 300 | Stable |  | 2.5 |  |  | > 70 | > 104 | CCOC(=O)c1cnc(N2CCN(C(=O)NS(=O)(=O)c3ccc(C)cc3)CC2)c(Cl)c1 | Stability [1]: Unstable; Stability [5]: Stable; solubility kinetic at 16 h (physchem [20]): 490 µM (≈ 229 µg/mL)
12 | 120 | 90 | Stable | 1.3 | 0.22 |  |  | > 70 | > 104 | CCOC(=O)c1cc(C#N)c(N2CCN(C(=O)NS(=O)(=O)c3ccc(C)cc3)CC2)nc1C(F)(F)F | remaining at 2922 h [19]: 52%; bioavailability [8]: 20%; half-life [9]: 1.5 h; half-life [12]: 0.65 h; clearance [14]: 89 mL/min/kg
13 | 42 | 34 | Stable | 1 | 0.058 | Stable | Stable | > 70 | > 104 | CCOC(=O)c1cc(C#N)c(N2CCN(C(=O)NS(=O)(=O)c3ccc(Cl)s3)CC2)nc1C | solubility [7]: 90 µM (≈ 44.8 µg/mL)
14 | 150 | 260 | Stable |  |  |  |  | > 70 | > 104 | CCOC(=O)c1cnc(N2CCN(C(=O)NS(=O)(=O)c3ccccc3C)CC2)c(Cl)c1 | solubility kinetic at 16 h (physchem [20]): 210 µM (≈ 98.1 µg/mL)
